According to EPA's ToxRefDB 2:

How the values were obtained:
rat [1] = conditions: Sub-acute dermal toxicity, Sprague-Dawley, Topical, dose end: 29 day, group: systemic, systemic / in life observation / clinical signs / anogenital staining
rat [2] = conditions: Subchronic dermal toxicity, other, Topical, dose end: 90 day, group: systemic, systemic / pathology gross / skin / lesion(s) (nos)
rat [3] = conditions: Subchronic oral toxicity in rodents, sprague dawley, Feed, dose end: 13 week, group: systemic
rat [4] = conditions: Subchronic inhalation toxicity, sprague dawley, Nose-Only, dose end: 90 day, group: systemic, systemic / pathology microscopic / nose / degeneration + systemic / pathology microscopic / nose / hyperkeratosis + systemic / pathology …
rat [5] = conditions: Prenatal developmental toxicity study, sprague dawley, Oral, Gavage/Intubation, dose end: 19 GD
rat [6] = conditions: Multigenerational reproductive toxicity study, other, Oral, Feed, dose end: 2 generation
rat [7] = conditions: Prenatal developmental toxicity study, Crl: CD BR, Oral, Gavage/Intubation, dose end: 15 GD
rat [8] = conditions: Subchronic oral toxicity in rodents, wistar, Feed, dose end: 3 month, group: systemic, systemic / organ weight / liver / nos
rabbit [9] = conditions: Prenatal developmental toxicity study, new zealand white, Oral, Gavage/Intubation, dose end: 18 GD
rabbit [10] = conditions: Prenatal developmental toxicity study, other, Oral, Gavage/Intubation, dose end: 18 GD
mouse = conditions: Carcinogenicity, cd1, Oral, Feed, dose end: 24 month, group: systemic
dog = conditions: Chronic toxicity, beagle, Oral, Feed, dose end: 104 week, group: systemic
rat [11] = conditions: Chronic toxicity, wistar, Oral, Feed, dose end: 105 week, group: systemic
[12] = systemic / pathology microscopic / spinal cord / vacuolization + systemic / pathology microscopic / brain / vacuolization
[13] = systemic / pathology microscopic / spinal cord / vacuolization + systemic / pathology microscopic / brain / vacuolization + systemic / organ…
[14] = group: developmental, systemic / in life observation / body weight / fetal weight
[15] = group: developmental, systemic / in life observation / body weight / fetal weight + developmental / developmental malformation / bone / bipartite ossification + …
[16] = group: maternal, systemic / in life observation / clinical signs / salivation
[17] = group: maternal, systemic / in life observation / clinical signs / salivation + reproductive / reproductive performance / resorptions / resorptions + …
[18] = group: offspring, systemic / in life observation / body weight / offspring (pup) weight
[19] = group: parental, systemic / in life observation / body weight / body weight gain + systemic / clinical chemistry / gamma glutamyl transferase (ggt) / gamma …
[20] = group: parental, systemic / in life observation / body weight / body weight gain + systemic / in life observation / food consumption / food consumption + …
[21] = group: developmental, developmental / developmental malformation / bone / incomplete ossification
[22] = group: developmental, developmental / developmental malformation / bone / incomplete ossification + systemic / in life observation / body weight / fetal weight + …
[23] = group: maternal, systemic / in life observation / body weight / body weight gain + systemic / in life observation / food consumption / food consumption + …
[24] = group: maternal, reproductive / reproductive performance / reproductive performance other / runts
[25] = group: developmental, developmental / developmental malformation / bone / [other]
[26] = group: maternal, systemic / in life observation / body weight / body weight gain
[27] = group: maternal, systemic / in life observation / body weight / body weight gain + systemic / in life observation / food consumption / food consumption
[28] = systemic / organ weight / liver / relative to body weight
[29] = systemic / organ weight / kidney / relative to body weight + systemic / organ weight / pancreas / relative to body weight + systemic / organ…
[30] = systemic / in life observation / body weight / body weight gain + systemic / organ weight / kidney / absolute + systemic / organ weight / …

## N#Cc1c(-c2ccc(Cl)cc2)[nH]c(C(F)(F)F)c1Br [Tralopyril]
Rat [1]
  LEL: 1000 mg/kg/day
  LOAEL: > 1000 mg/kg/day
  NEL: 300 mg/kg/day
  NOAEL: ≥ 1000 mg/kg/day
Rat [2]
  LEL: 300 mg/kg/day
  LOAEL: 300 mg/kg/day
  NEL: 100 mg/kg/day
  NOAEL: 100 mg/kg/day
Rat [3]; [12]
  LOAEL: 6.3 mg/kg/day
  NOAEL: < 6.3 mg/kg/day
Rat [3]; [13]
  LEL: 6.3 mg/kg/day
  NEL: < 6.3 mg/kg/day
Rat [4]
  LEL: 1.4 ppm
  LOAEL: 1.4 ppm
  NEL: < 1.4 ppm
  NOAEL: < 1.4 ppm
Rat [5]; [14]
  LEL: 10 mg/kg/day
  LOAEL: 10 mg/kg/day
Rat [5]; [15]
  NEL: 5 mg/kg/day
  NOAEL: 5 mg/kg/day
Rat [5]; [16]
  LEL: 10 mg/kg/day
  LOAEL: 10 mg/kg/day
Rat [5]; [17]
  NEL: 5 mg/kg/day
  NOAEL: 5 mg/kg/day

## CSc1nnc(C(C)(C)C)c(=O)n1N [Metribuzin]
Rat [6]; [18]
  LEL: 7.5 mg/kg/day
  LOAEL: 7.5 mg/kg/day
  NEL: 1.5 mg/kg/day
  NOAEL: 1.5 mg/kg/day
Rat [6]; [19]
  LEL: 7.5 mg/kg/day
  LOAEL: 7.5 mg/kg/day
Rat [6]; [20]
  NEL: 1.5 mg/kg/day
  NOAEL: 1.5 mg/kg/day
Rat [7]; [21]
  LEL: 25 mg/kg/day
  NEL: < 25 mg/kg/day
Rat [7]; [22]
  LOAEL: 200 mg/kg/day
  NOAEL: 70 mg/kg/day
Rat [7]; [23]
  LEL: 25 mg/kg/day
  LOAEL: > 200 mg/kg/day
  NEL: < 25 mg/kg/day
  NOAEL: ≥ 200 mg/kg/day
Rat [8]
  LEL: 3 mg/kg/day
  LOAEL: 3 mg/kg/day
  NEL: 1.25 mg/kg/day
  NOAEL: 1.25 mg/kg/day
Rabbit [9]; [14]
  LEL: 45 mg/kg/day
  LOAEL: 45 mg/kg/day
  NEL: 15 mg/kg/day
  NOAEL: 15 mg/kg/day
Rabbit [9]; group: maternal, reproductive / reproductive performance / aborted / aborted + systemic / in life observation / body weight / body weight
  LOAEL: 135 mg/kg/day
Rabbit [9]; group: maternal, reproductive / reproductive performance / aborted / aborted + systemic / in life observation / body weight / body weight + reproductive / …
  NOAEL: 45 mg/kg/day
Rabbit [9]; [24]
  LEL: 45 mg/kg/day
  NEL: 15 mg/kg/day
Rabbit [10]; [25]
  LEL: 85 mg/kg/day
  LOAEL: 85 mg/kg/day
  NEL: 30 mg/kg/day
  NOAEL: 30 mg/kg/day
Rabbit [10]; [26]
  LEL: 30 mg/kg/day
  LOAEL: 30 mg/kg/day
Rabbit [10]; [27]
  NEL: 10 mg/kg/day
  NOAEL: 10 mg/kg/day
mouse; systemic / hematology / hematocrit (hct) / hematocrit (hct) + systemic / hematology / hemoglobin (hgb) / hemoglobin (hgb)
  LOAEL: 567 mg/kg/day
mouse; systemic / hematology / hematocrit (hct) / hematocrit (hct) + systemic / hematology / hemoglobin (hgb) / hemoglobin (hgb) + systemic / organ…
  NOAEL: 139 mg/kg/day
mouse; [28]
  LEL: 35 mg/kg/day
  NEL: < 35 mg/kg/day
dog; systemic / clinical chemistry / cholesterol / cholesterol + systemic / hematology / blood clotting / blood clotting - prothrombin time + …
  LOAEL: 37.5 mg/kg/day
dog; [29]
  LEL: 0.625 mg/kg/day
  NEL: < 0.625 mg/kg/day
dog; systemic / organ weight / kidney / relative to body weight + systemic / organ weight / pancreas / relative to body weight + systemic / …
  NOAEL: 2.5 mg/kg/day
Rat [11]; systemic / in life observation / body weight / body weight gain
  LOAEL: 14.4 mg/kg/day
Rat [11]; [30]
  NEL: 1.3 mg/kg/day
  NOAEL: 5.27 mg/kg/day
Rat [11]; systemic / organ weight / lung / relative to body weight
  LEL: 1.87 mg/kg/day
